Experimental data published in PubChem BioAssay (NCI).
Several values for one entry are separate records, joined by “and”; a condition that tells them apart may be missing. Equal values may be shown once.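 Step 1: Grow cells in 96-well plates. Step 2: Expose to compound for 48 hours at 5 concentrations. Step 3: Interpolate endpoints linearly; if unreached, use highest concentration. The concentration for 50% growth inhibition is given as GI50. The concentration for full growth arrest is given as TGI.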

Legend:
Test in all cases: growth of human tumour cells (NCI), 48 h
A498 renal = tested on: A498 renal
CCRF-CEM leukemia = tested on: CCRF-CEM leukemia
HCC-2998 colon = tested on: HCC-2998 colon
HCT-15 colon = tested on: HCT-15 colon
HL-60(TB) leukemia = tested on: HL-60(TB) leukemia
HS 578T breast = tested on: HS 578T breast
IGROV1 ovarian = tested on: IGROV1 ovarian
OVCAR-3 ovarian = tested on: OVCAR-3 ovarian
PC-3 prostate = tested on: PC-3 prostate
UO-31 renal = tested on: UO-31 renal

Structure (SMILES)	GI50 (A498 renal)	TGI (A498 renal)	GI50 (CCRF-CEM leukemia)	TGI (CCRF-CEM leukemia)	GI50 (HCC-2998 colon)	TGI (HCC-2998 colon)	GI50 (HCT-15 colon)	TGI (HCT-15 colon)	GI50 (HL-60(TB) leukemia)	TGI (HL-60(TB) leukemia)	GI50 (HS 578T breast)	TGI (HS 578T breast)	GI50 (IGROV1 ovarian)	TGI (IGROV1 ovarian)	GI50 (OVCAR-3 ovarian)	TGI (OVCAR-3 ovarian)	GI50 (PC-3 prostate)	TGI (PC-3 prostate)	GI50 (UO-31 renal)	TGI (UO-31 renal)
COc1cnc2c(c1)C(=O)c1c-2n(CCCNC(C)C)c(=O)c2cc(F)ccc12	0.199 µM	0.811 µM	0.111 µM	10.7 µM	0.397 µM	1.75 µM	0.163 µM	1.32 µM	0.161 µM	0.615 µM	0.754 µM	5.22 µM	0.206 µM	1.92 µM	0.19 µM	1.03 µM	0.281 µM	2.55 µM	0.0801 µM	0.34 µM
O=c1oc2ccc(-n3c(=O)c4ccccc4c4ccccc4c3=O)cc2c2ccccc12	–	> 100 µM	–	> 100 µM	–	> 100 µM	–	> 100 µM	–	> 100 µM	–	81 µM	–	> 100 µM	–	> 100 µM	–	> 100 µM	–	> 100 µM
O=C(/C(=C/c1ccc([N+](=O)[O-])cc1)SCc1ccc(F)cc1)c1ccc(Cl)cc1	> 100 µM	> 100 µM	3.17 µM	> 100 µM	5.11 µM	19 µM	2.9 µM	11.6 µM	4.33 µM	40.4 µM	3 µM	9.32 µM	9.4 µM	38.7 µM	3.06 µM	10.6 µM	3.93 µM	16.2 µM	3.6 µM	17.8 µM
CCCCCCCCCCCCCCCCOP(=O)(O)OP(=O)(O)OCC1OC(n2ccc(N)nc2=O)C(O)C1O (centres undefined)	> 100 µM	> 100 µM	–	> 100 µM	> 100 µM and 36.8 µM	> 100 µM	–	> 100 µM	–	> 100 µM	–	> 100 µM	–	> 100 µM	–	> 100 µM	–	> 100 µM	> 100 µM and 21.8 µM	> 100 µM
CC[C@@]1(O)C(=O)OCc2c1cc1n(c2=O)Cc2c-1nc1cc3c(cc1c2C)OCO3	0.000257 µM	0.0272 µM and 0.0285 µM	< 0.0001 µM	–	0.00109 µM	0.0837 µM and 0.141 µM	0.00936 µM	> 100 µM	< 0.0001 µM	–	37.4 µM	> 100 µM	0.0351 µM	–	0.0758 µM and 0.0117 µM	> 100 µM	0.0254 µM	> 100 µM	< 0.0001 µM	0.0415 µM
CCN(CC)CCNc1cc(-c2cccc(OC(F)(F)F)c2)nc2ccc(N3CCCC3)cc12	1.61 µM and 1.82 µM and 3.42 µM	6.15 µM and 3.44 µM and 14.9 µM	1.57 µM and 2.19 µM and 2.8 µM	4.2 µM and 6.84 µM and 10.4 µM	1.34 µM and 1.28 µM and 1.9 µM	2.72 µM and 2.6 µM and 4.06 µM	1.46 µM and 1.38 µM and 1.73 µM	3.17 µM and 2.84 µM and 3.71 µM	1.66 µM and 0.714 µM and 2 µM	3.65 µM and 3.01 µM and 4.12 µM	1.59 µM and 1.87 µM and 2.78 µM	3.52 µM and 4.04 µM and 13 µM	1.34 µM and 1.41 µM and 1.46 µM	2.87 µM and 3.04 µM and 3.05 µM	1.82 µM and 1.83 µM and 1.9 µM	4.11 µM and 3.77 µM and 4.41 µM	1.37 µM and 1.57 µM and 1.81 µM	2.76 µM and 3.1 µM and 3.81 µM	1.23 µM and 1.35 µM and 1.46 µM	2.5 µM and 2.69 µM and 2.99 µM
c1ccc(CN=C(NCc2ccccc2)NCc2ccccc2)cc1	2.2 µM	14.7 µM	10.2 µM	62.5 µM	3.65 µM	12.9 µM	14.3 µM	> 100 µM	2.69 µM	13.2 µM	10.3 µM	27.3 µM	1.66 µM	9.51 µM	3.11 µM	14.9 µM	2.76 µM	12.9 µM	3.07 µM	15.2 µM
COc1cccc2c1c(C1=C(c3cn(C)c4ccccc34)C(=O)NC1=O)cn2C	> 25 µM	> 25 µM	> 25 µM	> 25 µM	> 25 µM	> 25 µM	> 25 µM	> 25 µM	> 25 µM	> 25 µM	> 25 µM	> 25 µM	> 25 µM	> 25 µM	> 25 µM	> 25 µM	> 25 µM	> 25 µM	> 25 µM	> 25 µM
Cc1ncsc1-c1ccc(CNC(=O)[C@@H]2C[C@@H](O)CN2C(=O)[C@@H](NC(=O)C2(C#N)CC2)C(C)(C)C)cc1	24 µM	> 100 µM	> 100 µM	> 100 µM	> 100 µM	> 100 µM	> 100 µM	> 100 µM	> 100 µM	> 100 µM	50.5 µM	> 100 µM	> 100 µM	> 100 µM	> 100 µM	> 100 µM	> 100 µM	> 100 µM	> 100 µM	> 100 µM
CC1=C([Te]c2ccc(O)cc2)C(=O)c2ccccc2C1=O	1.36 µM	3.01 µM	0.806 µM	4.38 µM	2.88 µM	9.66 µM	1.01 µM	4.31 µM	1.83 µM	5 µM	1.83 µM	7.6 µM	1.08 µM	4.91 µM	1.44 µM	2.79 µM	1.53 µM	5.11 µM	1.56 µM	4.98 µM
O=C(Nc1nc2ccc(F)cc2s1)c1cccnc1Nc1ccc(Cl)cc1	1.8 µM	5.46 µM	1.54 µM	> 100 µM	2.73 µM	> 100 µM	2.74 µM	> 100 µM	1.6 µM	5.8 µM	2.1 µM	7.54 µM	2.6 µM	> 34.1 µM	2.11 µM	9.57 µM	1.93 µM	> 27.4 µM	2.36 µM	> 21.5 µM
O=C1OC(c2ccccc2)(c2cc(Br)c(O)c(Br)c2)c2ccccc21 (centres undefined)	21.1 µM	52 µM	38.3 µM	> 100 µM	19.9 µM	37.8 µM	25.8 µM	76.2 µM	22.8 µM	67.8 µM	18.5 µM	57.3 µM	33.6 µM	> 100 µM	18.1 µM	36.4 µM	35.6 µM	> 100 µM	15.6 µM	42.3 µM
COc1ccc(-c2c(-c3cc(OC)c(OC)c(OC)c3)noc2N)cc1	< 0.01 µM	4.37 µM	0.0307 µM	> 100 µM	0.0197 µM	25.1 µM	< 0.0115 µM	> 100 µM	0.0215 µM	0.0589 µM	< 0.0104 µM	> 75.9 µM	0.0202 µM	40.1 µM	< 0.01 µM	0.0208 µM	< 0.0119 µM	> 100 µM	–	> 100 µM
